Test results published in patent EP4585216A1, “HETEROCYCLIC COMPOUNDS FOR THE TREATMENT OF FATTY LIVER DISEASE” (ScandiEdge Therapeutics AB, priority 2024, dated 2025).
Where “and” joins values, the source holds several entries; their conditions need not be identical. Identical values can stand only once. Entries after “also recorded” stand apart in the source; their conditions may differ. One block for each compound: values may come before it.

Tests used:
[1] = biological target: T1, pyruvate kinase liver (PKL) (Homo sapiens, UniProt P30613); assay: Pyruvate kinase activity in HepG2 PKM2 CRISPR KO protein lysate; format: biochemical; conditions: for inhibition at 10 µM: read-out: reduction in PK activity of HepG2 KO protein lysate; for PK activity of HepG2 KO protein lysate (in words): batches 4 and 5
T1 construct: endogenous in cells; host or cells: HepG2 PKM2 CRISPR KO (HepG2 KO) cells; lysate in CelLytic M or treated whole cells
T1 sequence (P30613 1-543 isoform P30613-2): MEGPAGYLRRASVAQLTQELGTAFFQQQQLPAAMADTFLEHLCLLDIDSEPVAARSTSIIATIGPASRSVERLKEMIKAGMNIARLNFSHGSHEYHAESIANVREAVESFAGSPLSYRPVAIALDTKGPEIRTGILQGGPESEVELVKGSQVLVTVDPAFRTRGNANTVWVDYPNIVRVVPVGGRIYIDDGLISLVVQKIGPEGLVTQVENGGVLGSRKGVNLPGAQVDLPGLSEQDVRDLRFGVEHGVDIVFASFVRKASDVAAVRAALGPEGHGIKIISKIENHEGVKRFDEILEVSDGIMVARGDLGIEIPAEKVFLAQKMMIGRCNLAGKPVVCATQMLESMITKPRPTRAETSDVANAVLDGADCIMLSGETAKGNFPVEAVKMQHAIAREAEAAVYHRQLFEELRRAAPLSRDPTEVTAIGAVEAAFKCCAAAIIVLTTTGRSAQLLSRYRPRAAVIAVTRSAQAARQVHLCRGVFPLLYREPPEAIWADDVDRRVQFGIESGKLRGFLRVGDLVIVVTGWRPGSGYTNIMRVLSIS
Protocol: (§1) HepG2 WT and HepG2 KO cells were lysed, and protein lysate was prepared with CelLytic M (C2978, Sigma-Aldrich) lysis buffer. Protein lysate was treated with 10 µM of the drugs and the pyruvate kinase activity on protein lysate was measured using Pyruvate Kinase Assay Kit (ab83432, abeam) following manufacturer's instruction. 2×10^4 HepG2 WT cells and 1×10^5 HepG2 KO cells were seeded into a 96-well plate for measuring pyruvate kinase activity in the cells. The cells were treated with 10-20µM of drugs for 4h and washed with 250µl PBS. Cells were lysed with 50 µl PK assay buffer (ab83432, abcam) and start reaction and kinetic O.D measurement was performed on 50µl PK assay buffer containing the assay component (ab83432, abcam). O.D values were measured with microplate reader (Hidex Sense Beta Plus) at 570nm wavelength. DMSO was used as control.
(§2) The effect of the target compounds was studied on liver cell line HepG2. HepG2 expresses two different pyruvate kinases (PK), pyruvate kinase muscle (PKM2) and pyruvate kinase liver (PKL). While most cells express PKM, liver cells further express PKL. […] In addition to HepG2 KO cell, HepG2 wild-type (HepG2 WT) cells were also used.

pyruvate kinase (PK) [2] = assay: Pyruvate kinase activity in HepG2 WT protein lysate; format: biochemical; conditions: 10 µM; for reduction in PK activity of HepG2 WT protein lysate: compared to the control (DMSO); for PK activity of HepG2 WT protein lysate (in words): batches 4 and 5
Protocol: as §1, §2

[3] = biological target: T1, pyruvate kinase liver (PKL); assay: Pyruvate kinase activity in treated HepG2 PKM2 CRISPR KO cells; format: cell-based
Protocol: as §1, §2

pyruvate kinase (PK) [4] = assay: Pyruvate kinase activity in treated HepG2 WT cells; format: cell-based
Protocol: as §1, §2

HepG2 cells [5] = assay: TAG measurement in DNL steatosis model; format: cell-based
Protocol: (§3) HepG2 wild type cells were purchased from genome engineering company Synthego. Cells were maintained with growth media RPMI 1640 (R2405, Sigma-Aldrich) and supplemented with 10 % fetal bovine serum (FBS, F7524, Sigma-Aldrich), 1 % penicillin-streptomycin (P/S media, P4333, Sigma-Aldrich). Steatosis induction media was prepared as DMEM high glucose (D0819, Sigma-Aldrich) with 10% FBS, 1% P/S media supplemented with 10µg/ml insulin (I9278, Sigma-Aldrich), and 10µM T0901317 (T2320, Sigma-Aldrich) for one week. HepG2 cells were seeded 6×10^4 cells per well into a 96-well plate for TAG and MTT assay after steatosis and 1×10^6 cells per well into 6-well plate for western blot analysis after steatosis. HepG2 cells were incubated with steatosis induce media (SM) for one week by 3 day + 2 day + 2 day with total three times media exchange.
(§4) HepG2 cells were seeded at 6×10^4 cells per well into 96-well plate and induced steatosis for one week with designated concentration of small molecules (this will be referred to as a DNL steatosis model). After steatosis induction, cells were washed with 200 µl of PBS and triglyceride contents was measured by Triglyceride Assay Kit - Quantification (ab65336, Abeam) following manufacturer's instruction. Optical density (O.D) values were detected with microplate reader at 570 nm (Hidex Sense Beta Plus).
(§5) 5 mg/ml MTT (M2128, Sigma-Aldrich) solution in PBS (10 µL) was added to each well for MTT assay. After 1 hr, MTT solution and all media were removed from the wells. 100 µl of DMSO was added and mixed to dissolve the formazan crystals. Cell viability was analysed by measuring the absorbance of the dissolved formazan in a microplate reader at a wavelength of 570 nm with microplate reader (Hidex Sense Beta Plus). DMSO was used as control.

HepG2 cells [6] = assay: MTT assay (cell viability) in DNL steatosis model; format: cell-based
Protocol: as §3, §4, §5

PKL [7] = assay: Western blot of DNL steatosis model, PKL expression; format: cell-based; conditions: 5 µM
Protocol: as §3
(§6) After steatosis induction with designated concentration of compounds, whole cell lysate was prepared with CelLytic M (C2978, Sigma-Aldrich) buffer. SDS PAGE was performed on Mini-PROTEAN® TGX™ Precast Gels (Bio-Rad) and transferred using Trans-Blot® Turbo™ Transfer System (Bio-Rad). […] Protein band was detected with ImageQuantTMLAS 500 (29-0050-63, GE). […]

[8] = test system: fatty acid synthase (FASN); assay: Western blot of DNL steatosis model, FASN expression; format: cell-based; conditions: 5 µM
Protocol: as §3, §6

PKM2 [9] = assay: Western blot of DNL steatosis model, PKM2 expression; format: cell-based; conditions: 5 µM
Protocol: as §3, §6

PKM2 [10] = biological target: T2, PKM2 (Homo sapiens, UniProt P14618); assay: Cellular thermal shift assay (Cetsa), PKM2; format: cell-based; conditions: HepG2 WT cells, 10 and 20 µM for 2 h, heat shock 60°C 5 min
T2 construct: host or cells: HepG2 wild-type cells
T2 sequence (P14618 2-531 limits assumed): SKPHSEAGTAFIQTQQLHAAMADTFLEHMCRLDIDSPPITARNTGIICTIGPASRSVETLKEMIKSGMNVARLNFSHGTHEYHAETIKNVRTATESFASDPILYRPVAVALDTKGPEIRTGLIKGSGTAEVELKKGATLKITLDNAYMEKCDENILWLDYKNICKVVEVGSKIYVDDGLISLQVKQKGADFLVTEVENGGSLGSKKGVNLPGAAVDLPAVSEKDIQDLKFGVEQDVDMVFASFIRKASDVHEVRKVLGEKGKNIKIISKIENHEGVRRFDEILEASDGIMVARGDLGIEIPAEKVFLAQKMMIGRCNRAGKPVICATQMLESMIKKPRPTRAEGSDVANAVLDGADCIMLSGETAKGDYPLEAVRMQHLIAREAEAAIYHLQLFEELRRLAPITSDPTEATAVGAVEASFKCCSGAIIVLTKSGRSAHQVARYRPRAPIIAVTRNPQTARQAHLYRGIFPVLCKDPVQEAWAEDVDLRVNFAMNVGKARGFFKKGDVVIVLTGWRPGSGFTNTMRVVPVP
Protocol: (§7) HepG2 WT cells were trypsinized and transferred into 1.5ml tube at a concentration of 500,000 cells per ml. The cells were treated with 10µM and 20µM SET-62 in an 1.5 ml tube and incubated for 2 h at 37°C in an CO2 incubator. The tubes were exposed to heat shock at 60°C for 5 min with a pre-heated heat block. After centrifugation of the heated cells at 13,000 rpm for 1 min, the cells were lysed with 50 µl of Native lysis Buffer (ab156035, abeam). Centrifugation was performed again to purify soluble proteins in the lysed solution and 9 µl of each group were analysed using western blot. DMSO was used as control.

PKL [11] = biological target: T3, PKL (Homo sapiens, UniProt P30613); assay: Cellular thermal shift assay (Cetsa), PKL; format: cell-based; conditions: HepG2 WT cells, 10 and 20 µM for 2 h, heat shock 60°C 5 min
T3 construct: host or cells: HepG2 wild-type cells
T3 sequence (P30613 1-543 isoform P30613-2): as the sequence (P30613 1-543 isoform P30613-2) above
Protocol: as §7

[12] = 10 µM for 4 h, compared to the control

inhibition at 10 µM ([1]; compared to the control (DMSO)): 29.4%
reduction in PK activity of HepG2 WT protein lysate (pyruvate kinase (PK) [2]): 28.7%
effect on PK activity in HepG2 KO cells (in words) [3, 12]: did not affect the PK activity
Structure (SMILES): O=S1(=O)Nc2cc(O)c(O)cc2-c2cc(O)c(O)cc21 [SET-10, 2,3,8,9-tetrahydroxy-6H-dibenzo[c,e][1,2]thiazine 5,5-dioxidee]
effect on PK activity in HepG2 WT cells (in words) (pyruvate kinase (PK) [4]; [12]): did not affect the PK activity

inhibition at 10 µM ([3]; HepG2, 10 µM for 4 h, read-out: inhibition of PK activity in HepG2 KO cells): 7.5%
Structure (SMILES): COc1ccc(CN2c3cc(OC)c(OC)cc3-c3cc(OC)c(OC)cc3S2(=O)=O)cc1 [SET-18, 2,3,8,9-tetramethoxy-6-(4-methoxybenzyl)-6H-dibenzo[c,e][1,2] thiazine 5,5-dioxide]
inhibition of PK activity in HepG2 WT cells (pyruvate kinase (PK) [4]; 10 µM for 4 h): 6.2%

PK activity of HepG2 KO protein lysate (in words) ([1]; 10 µM): reduced the PK activity
PK activity of HepG2 WT protein lysate (in words) (pyruvate kinase (PK) [2]): reduced the PK activity
Structure (SMILES): O=S(=O)(NCc1ccc(F)cc1)c1cc(O)c(O)cc1-c1ccc(O)cc1 [SET-66B, N-(4-fluorobenzyl)-4,4',5-trihydroxy-[1,1'-biphenyl]-2-sulfonamide]
increase of the TAG/MTT ratio (HepG2 cells [5]; 5 µM for 1 week): 6.0%

effect on PK activity in HepG2 KO cells (in words) [3, 12]: did not affect the PK activity
Structure (SMILES): COc1cc2c(cc1OC)N(Cc1ccccc1)S(=O)(=O)c1cc(OC)c(OC)cc1-2 [SET-08, 6-benzyl-2,3,8,9-tetramethoxy-6H-dibenzo[c,e][1,2]thiazine 5,5-dioxide]
effect on PK activity in HepG2 WT cells (in words) (pyruvate kinase (PK) [4]; [12]): did not affect the PK activity

PK activity of HepG2 KO protein lysate (in words) ([1]; 10 µM): highest inhibitory effect
inhibition at 10 µM ([1]; compared to the control (DMSO)): 57%
PK activity of HepG2 WT protein lysate (in words) (pyruvate kinase (PK) [2]): highest inhibitory effect
reduction in PK activity of HepG2 WT protein lysate (pyruvate kinase (PK) [2]): 59.9%
decrease in PK activity of HepG2 KO cells ([3]; 20 µM for 4 h): 32.8% and 24.4%
effect on PK activity in HepG2 KO cells (in words) ([3]; 20 µM for 4 h): decreased the PK activity
increase of the solubility of PKM2 (PKM2 [10]): 12-18%
decrease of the solubility of PKL (PKL [11]): ~ 38%
Structure (SMILES): O=S1(=O)c2cc(O)c(O)cc2-c2ccc(C(F)(F)F)cc2N1Cc1ccccc1 [SET-62, 6-benzyl-2,'3-dihydroxy-8-(trifluoromethyl)-6H-dibenzo[c,e][1,2]thiazine 5,5-dioxide]
effect on PK activity in HepG2 WT cells (in words) (pyruvate kinase (PK) [4]; 20 µM for 4 h): slightly increased the PK activity
increase in PK activity of HepG2 WT cells (pyruvate kinase (PK) [4]; 20 µM for 4 h): 6% and 9.0%
TAG/MTT reduced to (HepG2 cells [5]; 0.625 µM for one week): 15.0%
TAG/MTT ratio reduced to (HepG2 cells [5]; 5 µM for one week): 49.4% and 61.3%
TAG content (in words) (HepG2 cells [5]; 10 µM for 1 week): reduced TAG content
TAG/MTT ratio (HepG2 cells [5]; 10 µM for 1 week): 92.9%
cell viability (in words) (HepG2 cells [6]; 5 µM for 1 week (batch 4)): increased the cell viability
cell viability (MTT assay, in words) (HepG2 cells [6]; 10 µM for 1 week): decreased cell viability; also recorded: strong toxicity
cell viability / toxicity (in words) (HepG2 cells [6]; lower doses (5 µM, 2.5 µM, 1.25 µM, 0.625 µM), one week): did not exhibit any toxicity
PKL protein expression level (PKL [7]): decreased
FASN protein expression level [8]: decreased
expression of PKM2 (PKM2 [9]): slight increase

inhibition at 10 µM ([1]; compared to the control (DMSO)): 32.4%
reduction in PK activity of HepG2 WT protein lysate (pyruvate kinase (PK) [2]): 33.8%
Structure (SMILES): COc1cc2c(cc1OC)S(=O)(=O)N(Cc1ccc(F)cc1)c1cc(C(F)(F)F)ccc1-2 [SET-58, 6-(4-fluorobenzyl)-2,3-dimethoxy-8-(trifluoromethyl)-6H-dibenzo[c,e][1,2]thiazine 5,5-dioxide]
TAG content (in words) (HepG2 cells [5]; 10 µM for 1 week): reduced TAG content

Structure (SMILES): Cn1c2cc([S+](C)[O-])sc2c2cnn(Cc3cccc(N)c3)c(=O)c21 (centres unmarked) [TEPP46, reference compound]
effect on PK activity in HepG2 WT cells (in words) (pyruvate kinase (PK) [4]; [12]): increased activity

reduction in PK activity of HepG2 KO protein lysate ([1]; 10 µM, compared to the control (DMSO)): 11.1%
reduction in PK activity of HepG2 WT protein lysate (pyruvate kinase (PK) [2]): 13.3%
Structure (SMILES): O=S1(=O)c2cc(O)c(O)cc2-c2ccc(C(F)(F)F)cc2N1Cc1ccc(F)cc1 [SET-59, 6-(4-fluorobenzyl)-2,2-dihydroxy-8-(trifluoromethyl)-6H-dibenzo[c,e][1,2]thiazine 5,5-dioxide]
TAG content (in words) (HepG2 cells [5]; 10 µM for 1 week): reduced TAG content
